The target in series [1] is T1, catalytic domain of human stromelysin (Hsln) (Homo sapiens, UniProt P08254).
T1 construct: The catalytic domain of human stromelysin (Hsln) was obtained by expression and purification of a C-terminally truncated prostromelysin-1; made in house; host or cells: E. coli BL21
The series can be described thus: Fluorometric MCA-peptide hydrolysis assay, stromelysin (Hsln). It counts as biochemical. To be noted: apparent Ki; 10 μM MCA peptide substrate, 37° C., pH 7.5; read-out: Hsln (Ki,app). The method, then:
The catalytic domain of human stromelysin (Hsln) was obtained by expression and purification of a C-terminally truncated prostromelysin-1 from E. coli host BL21 (see Marcy et al. Biochem., 1991, 30, 6476). The subsequent activation of the mature form (Hsln) was completed with 2 mM APMA for 1 hour at 37° C., followed by separation using a sizing column.
(§1) Assays were performed in assay buffer (50 mM Tricine pH 7.5, 200 mM sodium chloride, 10 mM calcium chloride, 0.5 mM zinc acetate containing 2% dimethyl sulfoxide (DMSO)) once the substrate and inhibitor were diluted into it. Stock solutions of inhibitors were prepared in 100% DMSO. Stock solutions of the substrate were prepared in 100% DMSO at a concentration of 6 mM.
(§2) The assay method was based on the hydrolysis of MCA-Pro-Leu-Gly-Leu-DPA-Ala-Arg-NH2 (American Peptide Co.) at 37° C. (see Knight, C. G. et al., FEBS, 1992, 296, 263-266). The fluorescence changes were monitored with a Perkin-Elmer LS-50B fluorimeter using an excitation wavelength of 328 nm and an emission wavelength of 393 nm. The substrate concentration used in the assays was 10 μM. The inhibitor was diluted into the assays from a solution in 100% DMSO, and controls substituted an equal volume of DMSO so that the final DMSO concentration from inhibitor and substrate dilution in all assays was 2%. […] Proper determination of steady-state rates of substrate cleavage required assay lengths of 60 minutes to allow for complete equilibration of the enzyme-inhibitor complex.
(§3) The Km for the MCA peptide substrate with the matrix metalloproteinases is quite high and exceeds its solubility under assay conditions. Consequently, the apparent Ki (Ki,app) was determined to describe the strength of inhibition. However, in this case, Ki,app would be essentially equal to Ki since [S]<<Km. For the determination of Ki,app, the concentration of the inhibitor was varied at a constant and low concentration of substrate and the steady-state rates of fluorescence change determined. In most cases absorptive quench due to the presence of ligand was not observed. For slow-binding inhibitors, onset of inhibition curves were collected for at least 45 minutes so that equilibrium was established. Steady-state rates of fluorescence change were obtained by fitting a curve to an equation for a single exponential decay containing a linear phase. The fitted value of the linear phase was taken as the steady-state rate. The steady-state rates were fitted to the Michaelis equation describing competitive inhibition by non-linear methods. Data resulting from tight-binding inhibition was analyzed, and Ki,app determined by fitting the data to the tight-binding equation of Morrison (Biochem. Biophys. Acta, vol. 185, pp. 269-286 (1969)) by non-linear methods.

Series [2] addresses T2, human collagenase-3 (Coll3) (Homo sapiens, UniProt P45452).
T2 construct: the catalytic domain was liberated by treatment with 2 mM APMA at room temperature overnight; ubiquitin (N, cleaved yes); made in house; host or cells: E. coli
The series can be described thus: Fluorometric MCA-peptide hydrolysis assay, collagenase-3 (Coll3). It counts as biochemical. To be noted: apparent Ki; 10 μM MCA peptide substrate, 37° C., pH 7.5; read-out: Coll3 (Ki,app). The method, then: The propeptide and catalytic domain of human collagenase-3 (Coll3) was expressed in E. coli as an N-terminal fusion protein with ubiquitin. After purification of the fusion from inclusion bodies, the catalytic domain was liberated by treatment with 2 mM APMA at room temperature overnight. Final purification was completed using copper chelate chromatography.
as §1, §2
as §3, with “In most cases absorptive quench due to the presence of ligand was not observed.” left out

The target in series [3] is T3, fibroblast collagenase-1 catalytic domain (HFC) (Homo sapiens, UniProt P03956).
T3 construct: The catalytic domain of human collagenase-1 was expressed as a fusion protein with ubiquitin in E. coli; ubiquitin (cleaved yes); made in house; host or cells: E. coli
T3 sequence (P03956 100-269 limits assumed): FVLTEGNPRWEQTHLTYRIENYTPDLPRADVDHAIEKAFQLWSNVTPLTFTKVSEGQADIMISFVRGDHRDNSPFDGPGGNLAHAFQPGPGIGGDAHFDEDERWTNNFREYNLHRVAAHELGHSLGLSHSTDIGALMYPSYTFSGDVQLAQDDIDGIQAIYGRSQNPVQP
The series can be described thus: Fluorometric MCA-peptide hydrolysis assay, fibroblast collagenase-1 (HFC). The format is biochemical. The note with it: apparent Ki; 10 μM MCA peptide substrate, 37° C., pH 7.5; read-out: HFC (Ki,app). The method, then: The catalytic domain of human collagenase-1 was expressed as a fusion protein with ubiquitin in E. coli (see Gehring, E. R., J Biol. Chem., 1995, 270, 22507). After purification of the fusion protein, the fibroblast collagenase-1 catalytic domain (HFC) was released either by treatment with purified, active stromelysin-1 (1:50 w/w ratio), which generated nearly 100% N-terminal Phe1, or by autoprocessing the concentrated collagenase-1 fusion and then incubating at 37° C. for 1 hour. Final purification was completed using zinc chelate chromatography.
as §1, §2, §3

Series [4] deals with T4, human progelatinase A (GelA), catalytic and fibronectin-like portion (Homo sapiens, UniProt P08253).
T4 construct: The catalytic and fibronectin-like portion of human progelatinase A (GelA) was expressed as a fusion protein with ubiquitin; ubiquitin; made in house; host or cells: E. coli
T4 sequence (P08253 110-465 limits assumed): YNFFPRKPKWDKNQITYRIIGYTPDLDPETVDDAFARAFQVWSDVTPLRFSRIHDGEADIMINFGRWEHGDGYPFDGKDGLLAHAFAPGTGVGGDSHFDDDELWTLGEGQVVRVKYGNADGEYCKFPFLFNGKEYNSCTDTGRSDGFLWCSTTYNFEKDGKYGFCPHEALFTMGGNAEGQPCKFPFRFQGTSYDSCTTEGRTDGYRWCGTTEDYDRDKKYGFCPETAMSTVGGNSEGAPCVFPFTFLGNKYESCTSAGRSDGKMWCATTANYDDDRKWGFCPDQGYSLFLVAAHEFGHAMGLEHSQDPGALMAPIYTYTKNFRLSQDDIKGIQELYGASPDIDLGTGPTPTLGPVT
The series can be described thus: Fluorometric MCA-peptide hydrolysis assay, gelatinase A (GelA). The format is biochemical. To be noted: apparent Ki; 10 μM MCA peptide substrate, 37° C., pH 7.5. The method, then: The catalytic and fibronectin-like portion of human progelatinase A (GelA) was expressed as a fusion protein with ubiquitin in E. Coli. Assays were carried out on autocatalytically activated material.
as §1, §2, §3

Series [5] addresses T5, Human matrilysin (Matr) (Homo sapiens, UniProt P09237).
T5 construct: the catalytic domain was liberated by treatment with 2 mM APMA at 37° C. for 2 hours; ubiquitin (cleaved yes); made in house; host or cells: E. coli
T5 sequence (P09237 95-267): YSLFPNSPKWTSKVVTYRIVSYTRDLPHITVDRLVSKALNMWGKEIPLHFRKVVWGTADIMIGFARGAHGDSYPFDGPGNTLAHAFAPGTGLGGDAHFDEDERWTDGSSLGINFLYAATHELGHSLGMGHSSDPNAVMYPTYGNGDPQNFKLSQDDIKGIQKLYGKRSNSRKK
The series can be described thus: Fluorometric MCA-peptide hydrolysis assay, matrilysin (Matr). It counts as biochemical. To be noted: apparent Ki; 10 μM MCA peptide substrate, 37° C., pH 7.5; read-out: Matr (Ki,app). The method, then: Human matrilysin (Matr) was expressed in E. coli as a fusion protein with ubiquitin. After purification of the matrilysin/ubiquitin fusion from inclusion bodies, the catalytic domain was liberated by treatment with 2 mM APMA at 37° C. for 2 hours. Final purification was complete using copper chelate chromatography.
as §1, §2, §3

By melting point is commonly meant the temperature of the solid-liquid transition.

Structures can show the parent of a compound that is named as a salt. Some results are limits rather than exact numbers.

T1 sequence (P08254 100-272 limits assumed): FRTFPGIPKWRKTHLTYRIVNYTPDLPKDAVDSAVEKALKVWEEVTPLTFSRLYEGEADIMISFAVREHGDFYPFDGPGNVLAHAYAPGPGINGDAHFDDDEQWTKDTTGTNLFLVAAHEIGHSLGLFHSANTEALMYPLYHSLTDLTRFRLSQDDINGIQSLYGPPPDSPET

For `O=C(CC(C(=O)N[C@H]1CCCCNC1=O)n1cnc(-c2ccc(-c3ccccc3)cc2)c1)NO` (mixture of isomers) [Example 19(a)], the Ki in series [1] stood at 31 nM; in series [2], 43 nM; in series [3] it was 57 µM.
For `CC(C)(C)[C@@H](CO)NC(=O)C(CC(=O)NO)n1cnc(-c2ccc(-c3ccccc3)cc2)c1` (mixture of isomers) [Example 19(b), 3(RS)-(3-Biphenyl-4-yl-1H-imidazol-1-yl)-N^4-(2,2-dimethyl-1(S)-hydroxymethylpropyl)-N^1-hydroxy-succindiamide] the same measures were 17 nM, 9.7 nM and 66 µM.
For the molecule `CNC(=O)[C@@H](NC(=O)C(CC(=O)NO)n1cnc(-c2ccc(-c3ccccc3)cc2)c1)C(C)(C)C` (mixture of isomers) [Example 19(e)], the Ki in series [1] came to 2.3 nM; in series [2] it was 0.13 nM; in series [3], 0.31 µM.
`COC[C@H](Cc1ccccc1)NC(=O)[C@@H](CC(=O)O)n1ccc(-c2ccc(-c3ccccc3)cc2)c1` [Example 1(f), N-(1(S)-Benzyl-2-methoxyethyl)-3(R)-[3-(biphenyl-4-yl)-1H-pyrrol-1-yl]succinamic Acid] gave a melting point of 247 °C. Further, the Ki in series [1] came out at 331 nM. Also, the Ki in series [2] was 542 nM. Also, the GelA (Ki,app) in series [4] amounted to 93 nM. For the same molecule, the Ki in series [5] is 1000 nM.
For `COC(=O)c1ccc(NC(=O)[C@H](CC(C)C)NC(=O)[C@@H](CC(=O)O)n2ccc(-c3ccc(-c4ccccc4)cc3)c2)cc1` [Example 1(k), 4-[2S-[2(R)-[3-(Biphenyl-4-yl)-1H-pyrrol-1-yl]-3-carboxy-propionylamino]-4-methyl-pentanoylamino]benzoic Acid Methyl Ester], in that order: 209 to 211 °C, 0.15 nM, 40 nM, 1.9 nM and 11 nM.
Molecule `N#Cc1ccc(-c2ccc(-c3ccn([C@H](CC(=O)O)C(=O)N[C@H](CO)Cc4ccccc4)c3)cc2)cc1` [Example 4(a), N-(1(S)-Benzyl-2-hydroxyethyl)-3(R)-[3-(4′-cyanobiphenyl-4-yl)-1H-pyrrol-1-yl]succinamic Acid] yielded a melting point of 189 to 192 °C. Further, the Ki in series [1] is 30 nM. In addition, in series [2], the Ki amounted to 2.7 nM. The GelA (Ki,app) in series [4] amounted to 1.3 nM. The Ki in series [5] is 5200 nM.
For `NC(=O)c1ccc(-c2ccc(-c3ccn([C@H](CC(=O)O)C(=O)N[C@H](CO)Cc4ccccc4)c3)cc2)cc1` [Example 4(b), N-(1-Benzyl-2-hydroxyethyl)-3(R)-[3-(4′-carbamoylbiphenyl-4-yl)-1H-pyrrol-1-yl]succinamic Acid] the same measures were 218 to 220 °C, 23 nM, 2.13 nM, 1.11 nM and 1520 nM.
With `O=C(O)C[C@H](C(=O)N[C@H](CO)c1ccccc1)n1ccc(-c2ccc(-c3ccncc3)cc2)c1` [Example 5(b), N-(2-Hydroxy-1(S)-phenylethyl)-3(R)-[3-[4-(pyridin-4-yl)phenyl]-1H-pyrrol-1-yl]succinamic Acid], the Ki in series [1] is 30 nM; in series [2], 9.1 nM; in series [5] it was 5200 nM; in series [3], more than 12 µM. In addition, the GelA (Ki,app) in series [4] was 1.04 nM.
For `CC(C)(C)[C@H](NC(=O)[C@@H](CC(=O)O)n1ccc(-c2ccc(-c3ccc(C#N)cc3)cc2)c1)C(=O)Nc1ccncc1` [Example 5(d), 3(R)-[3-(4′-Cyanobiphenyl-4-yl)-1H-pyrrol-1-yl]-N-[2,2-dimethyl-1(S)-(pyridin-4-ylcarbamoyl)propyl]succinamic Acid Formate Salt] the same measures were 1.6 nM, 0.23 nM, 4.5 nM, more than 2 µM and 0.028 nM.
For `O=C(O)C[C@H](C(=O)N[C@@H]1c2ccccc2C[C@H]1O)n1ccc(-c2ccc(-c3ccncc3)cc2)c1` [Example 6(a), N-(2(R)-Hydroxyindan-1(R)-yl)-3(R)-[3-[4-(pyridin-4-yl)phenyl]-1H-pyrrol-1-yl]succinamic Acid], in that order: 15 nM, 15.6 nM, 1500 nM, 8.86 µM and 6.62 nM.
As to `CCC[C@H](C(=O)O)[C@H](C(=O)N[C@H](CO)C(C)(C)C)n1ccc(-c2ccc(-c3ccc(C#N)cc3)cc2)c1` [Example 10(c), 2S-[1R-(3-(4′-Cyanobiphenyl-4-yl)-1H-pyrrol-1-yl)-1-(2,2-dimethyl-1(S)-(hydroxymethyl)propylcarbamoyl)-methyl]-pentanoic Acid], the melting point lay within 130 to 132 °C. Further, the Ki in series [1] stood at 40 nM. For the same molecule, the Ki in series [2] amounted to 50 nM. The GelA (Ki,app) in series [4] was found to be 22 nM. Moreover, the Ki in series [5] is 2180 nM.

For the origin of these results see patent US6495699B2, “Metalloproteinase inhibitors, pharmaceutical compositions containing them, and their use” (Agouron Pharmaceuticals Inc., priority 1996, dated 2002).
